Measured values: patent US11820766B2, “Monoacylglycerol lipase modulators” (Janssen Pharmaceutica NV, priority 2018, dated 2023)

Target: T1, human MGL from HeLa cells (Homo sapiens, UniProt Q99685)
T1 construct: combining endogenously expressed MGL from HeLa cells with test compounds; endogenous in cells; host or cells: HeLa cells / cell homogenates
T1 sequence (Q99685 1-303): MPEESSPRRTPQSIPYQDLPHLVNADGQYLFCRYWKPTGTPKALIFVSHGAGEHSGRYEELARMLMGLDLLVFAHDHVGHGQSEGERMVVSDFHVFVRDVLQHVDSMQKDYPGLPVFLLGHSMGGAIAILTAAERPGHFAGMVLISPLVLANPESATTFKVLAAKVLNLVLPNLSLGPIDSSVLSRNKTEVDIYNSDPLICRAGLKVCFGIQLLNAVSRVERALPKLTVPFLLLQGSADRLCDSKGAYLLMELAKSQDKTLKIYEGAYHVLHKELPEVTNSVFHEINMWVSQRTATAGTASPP
Assay: In vitro MGL activity assay: [glycerol-1,3-3H]-oleyl glycerol cleavage by MGL from HeLa cells
Format: biochemical
Details: 300 nM [Glycerol-1,3-3H]-oleyl glycerol, one hour
Source text: MGL is the predominant hydrolase in HeLa cells/cell homogenates.

IC50 | Compound
32.4 nM | Cc1nc(C(=O)N2CCc3c(nn(C)c3-c3cc(F)c(F)c(F)c3)[C@@H]2C)c2cnn(C)c2n1 [Example 617, (S)-(1,6-Dimethyl-1H-pyrazolo[3,4-d]pyrimidin-4-yl)(2,7-dimethyl-3-(3,4,5-trifluorophenyl)-2,4,5,7-tetrahydro-6H-pyrazolo[3,4-c]pyridin-6-yl)methanone]
18.2 nM | Cc1nc2ccc(C3CC3)cn2c1C(=O)N1CCc2c(nn(C)c2-c2cc(F)c(F)c(F)c2)[C@@H]1C [Example 618]
